Earlier results in patent US20060127910A1, “Bpl1 as an antifungal target” (priority 2002, published 2006).

Conditions: mice, DOX 2 mg/ml in 5% sucrose solution as drinking water, approx. 5 ml per day

For `C[C@H]1c2cccc(O)c2C(O)=C2C(=O)[C@]3(O)C(O)=C(C(N)=O)C(=O)[C@@H](N(C)C)[C@@H]3[C@@H](O)[C@@H]21` [DOX, doxycycline], the “concentration of DOX in kidney” value (kidney) is listed as > 10 mg/g of kidney, the “concentration of DOX in liver” value (liver) is listed as > 8 mg/g of liver and the “concentration of DOX in serum” value (serum) is listed as “more than 2 mg/ml of serum”.
